Measurements taken from patent US20100331330A1, “METHODS AND COMPOSITIONS FOR TREATING ISCHEMIC STROKE” (priority 2006, published 2010).
“Also recorded” adds a separate entry of the source. Where two headings read alike, the source gives them in different places.

Assays:
[1] = tested on: rodent models of cerebral ischemia; details: cited from earlier work
dopaminergic cell death = details: Parkinson's disease model; cited from earlier work
[2] = two hour continuous monitoring; previously shown; cited from earlier work
ICAM = ICAM immunohistochemistry of brain sections after MCAO; assay type: in vivo, rat; details: rosiglitazone 0.1 mg/kg or pioglitazone 1 mg/kg 24 h before and at time of MCAO; sacrificed 24 h later
Excerpt: Animals were euthanized and brains prepared in the same manner described for infarct volume determination. Frozen sections of the brains were cut coronally at ten microns. Sections were collected every 1000 mm beginning at the level of the forceps minor corpus callosum and extending through the hippocampus. Ten micron cryostat sections were labeled using either mouse anti-ICAM (Sertec, UK) or rabbit antimyeloperoxidase (Dacko) antibodies in 5% rat serum. Primary antibodies were visualized using either goat anti-mouse conjugated to Oregon Green or goat anti-rabbit conjugated to Oregon-Green (Molecular Probes, Eugene, Oreg.) in 5% rat serum. Adjacent sections were incubated without primary antisera to control for non-specific binding of the secondary antiserum. Sections were viewed using a fluorescent microscope and images acquired and stored using Spot Advanced imaging software (Spot Image Corporation, Chantilly, Va.). Some sections were also imaged using confocal microscopy.

[3] = tested on: rats subjected to middle cerebral artery occlusion (MCAO); details: for infarction volume relative to vehicle injected rats: assayed 24 h after MCAO
Excerpt: Male Wistar rats, 250-350 g, were obtained from Charles River (Wilmington, Mass.). Animals were housed and cared for in the Animal Resource Center and allowed free access to food and water before and after surgery. All procedures were approved by the Institutional Animal Care and Use Committee of Case Western Reserve University.
A 4.0 nylon suture with a flame rounded tip was advanced through the internal carotid artery to occlude the MCA while cerebral blood flow was monitored using laser doppler (Perimed AB, Jarfalla, Sweden). At the time of reperfusion rats were again anesthetized and the suture removed with cerebral blood flow monitoring to ensure reperfusion. Arterial blood pressure, arterial blood gases and temperature were all monitored and controlled during the length of the procedure.
Control animals were injected with 0.1 ml DMSO.
Rats were euthanized by exposure to 5% halothane until breathing ceased. They then underwent intracardiac perfusion first with PBS and then with 4% paraformaldehyde. Brains were isolated and immersion fixed in 4% paraformaldehyde overnight. Tissue was cryoprotected in 30% sucrose in PBS. Twenty micron frozen sections were collected every […] beginning at the level of the forceps minor corpus callosum and extending through the hippocampus. Sections were stained with Thionin and the area of infarction measured using Bioquant computer software (R&M Biometrics, Nashville, Tenn.) by subtracting the uninfarcted tissue in the ischemic hemisphere from the volume of the contralateral hemisphere. This method corrects for post-ischemic edema.
Male Wistar rats, 250-350 g, were obtained from Charles River (Wilmington, Mass.). […] Animals were housed and cared for in the Animal Resource Center and allowed free access to food and water before and after surgery. […] The tail artery was exposed and cannulated to measure mean arterial blood pressure and to obtain blood for blood gas measurements during surgery. Animals in which normal temperature, blood pressure and gases could not be maintained were excluded from the study. MCAO was performed as previously described. Briefly, the bifurcation of the common carotid artery was exposed. The external carotid artery was isolated and a suture placed 0.5 cm from the bifurcation. Following electrocoagulation distal to the suture the external carotid was cut between the suture and the electrocoagulated segment. A suture was applied to the common carotid artery such that it could be removed later. A loop of suture was then placed under the internal carotid artery and the artery elevated to transiently occlude blood flow. A small nick was made in the wall of the external carotid artery. Through this nick a 22 mm length of 4.0 Ethicon suture, its tip rounded by heating near a flame, was gently threaded from the external to the internal carotid artery lumen to a distance of 18 mm from the bifurcation of the carotid. The thread was held in place with a suture around the stump of the external carotid artery and the suture around the internal carotid artery released. The catheter was removed from the tail artery and both incisions were closed. The rats were then allowed to recover from anesthesia. […] The neck incision was reopened and the 4.0 Ethicon suture removed. The suture that held it in place was tightened and the suture around the common carotid artery was removed. After confirmation of reperfusion by visual inspection, the incision was closed and the animal allowed to recover.
Twenty micron frozen sections of paraformaldehyde fixed brains were collected every 1000 μm beginning at the level of the forceps minor corpus callosum and extending through the hippocampus. The slides were stained with Thionin. The sections were then trans-illuminated and the image transmitted to a computer screen.

3T3-L1 cells = details: cited from earlier work
myeloperoxidase-IR cells = test: Quantification of myeloperoxidase-IR cells (leukocyte infiltration) after MCAO; assay type: in vivo, rat
Excerpt: Frozen sections of the brains were cut coronally at ten microns. Sections were collected every 1000 mm beginning at the level of the forceps minor corpus callosum and extending through the hippocampus. Ten micron cryostat sections were labeled using either mouse anti-ICAM (Sertec, UK) or rabbit antimyeloperoxidase (Dacko) antibodies in 5% rat serum. Primary antibodies were visualized using either goat anti-mouse conjugated to Oregon Green or goat anti-rabbit conjugated to Oregon-Green (Molecular Probes, Eugene, Oreg.) in 5% rat serum. Adjacent sections were incubated without primary antisera to control for non-specific binding of the secondary antiserum. Sections were viewed using a fluorescent microscope and images acquired and stored using Spot Advanced imaging software (Spot Image Corporation, Chantilly, Va.). […]
Myeloperoxidase-IR cells were quantified from cryostat sections through the maximal area of infarction labeled with rabbit anti-myeloperoxidase antibody followed by anti-rabbit antibodies conjugated to Oregon-green. Digital photographs of high powered fields covering a representative section were analyzed in Adobe Photoshop by overlaying a grid and counting all myeloperoxidase-IR cells. The average number of myeloperoxidase-IR cells per high powered field (360 μm2) was calculated and plotted using data from at least three animals.

LPL mRNA = test: Lipoprotein lipase (LPL) mRNA by real time PCR after MCAO; assay type: in vivo, rat; details: rosiglitazone 0.1 mg/kg, pioglitazone 1.0 mg/kg; 24 h before and at time of 2 hour MCAO; tissue 24 h later
Excerpt: At the time of sacrifice the animal was placed in an anesthesia chamber and exposed to 5% halothane, 30% oxygen, 65% nitrous oxide until it ceased breathing. The rat was the, processed for either histologic and immunocytochemical analysis or decapitated and the brain immediately dissected for mRNA isolation. Animals used for immunohistochemistry underwent intracardiac perfusion; the thoracic cavity was opened, a blunt needle placed through the left ventricle into the aorta and the right atrium cut. Animals were perfused through the heart, first with 0.1 M phosphate buffer and then with 4% paraformaldehyde (pH 7.4). The brain was removed from the rat and immersion fixed in 4% paraformaldehyde for an additional hour. Tissue was then transferred to 30% sucrose in phosphate buffer in order to cyroprotect it. Brains were mounted in OCT sectioning medium and frozen sections cut at either twenty microns (for infarct volume determination) or ten microns (for immunocytochemistry). Animals used in real time PCR experiments were decapitated after euthanasia and the brain quickly removed.
A 2 mm thick coronal slice of tissue through the area of maximal infarction was quickly homogenized in Trizol (Gibco BRL, Rockville, Md.). […] RNA was isolated using Life Technologies Protocol (Rockville, Md.), and cDNA synthesized from 1.5 μg of total RNA. […]

ICAM mRNA = ICAM mRNA by real time PCR after MCAO; assay type: in vivo, rat; details: rosiglitazone 0.1 mg/kg or pioglitazone 1 mg/kg 24 h before and at time of 2 hour MCAO; sacrificed 24 h later

## CCc1ccc(CCOc2ccc(CC3SC(=O)NC3=O)cc2)nc1 (stereo not shown) [pioglitazone, 5-[4-[2-(5-ethylpyridin-2-yl)ethoxyl]benzyl]thiazolidine-2,4-dione]
[1]; in vivo
  neuroprotection in rodent models of cerebral ischemia: effective neuroprotective agents
[1]; permanent ischemia
  efficacy of oral pretreatment: but not permanent ischemia
[1]; transient ischemia
  efficacy of oral pretreatment: effective in transient
Dopaminergic cell death
  dopaminergic cell death: attenuates dopaminergic cell death
[2]
  cerebral blood flow: no significant change in cerebral blood flow
ICAM
  ICAM-IR in brain sections compared with vehicle treated rats: less is seen
[3]; 0.5 mg/kg IP 24 h before and at time of 2 hour MCAO
  infarction volume relative to vehicle injected rats: did not significantly reduce infarction volume
[3]; 1 mg/kg IP 1 hour after onset of 2 hour MCAO
  infarct volume compared to vehicle treated rats: significantly reduce infarction volume; also recorded: significantly reduced
[3]; 1 mg/kg IP 6 hours after onset of 2 hour MCAO
  infarct volume compared to vehicle treated rats: not when given three or six hours after MCAO; also recorded: no significant change in infarct volume
[3]; 1 mg/kg IP 24 h before and at time of 2 hour MCAO
  infarction volume relative to vehicle injected rats: significantly reduced infarction size
[3]; 1 mg/kg IP 24 h before and at time of 2 hour MCAO, listed as Pioglitazone
  infarction volume relative to vehicle injected rats: did significantly reduce infarction volume; also recorded: significantly reduced infarction volume
[3]; 1 mg/kg IP 24 h before and at time of MCAO, permanent occlusion, listed as Pioglitazone
  infarction volume relative to vehicle treated rats: no significant protection was evident
[3]; 3.5 mg/kg IP 24 h before and at time of 2 hour MCAO
  infarction volume relative to vehicle injected rats: did significantly reduce infarction volume
[3]; 7 mg/kg IP 24 h before and at time of 2 hour MCAO
  infarction volume relative to vehicle injected rats: protection was lost
[3]; IP 24 h before and at time of 2 hour MCAO, infarct volume 24 h after MCAO
  optimal dose for neuroprotection: 1 mg/kg
[3]; pioglitazone 1 mg/kg or rosiglitazone 0.1 mg/kg 3 hours after MCAO onset, reperfusion at 2 hours (before treatment)
  infarct volume compared to vehicle treated rats: not when given three or six hours after MCAO; also recorded: infarction volumes which were similar to animals injected with vehicle; also recorded: no significant change in infarct volume; also recorded: infarction volumes similar to those previously seen in untreated and vehicle treated rats
[3]; pioglitazone 1 mg/kg or rosiglitazone 0.1 mg/kg 3 hours after MCAO onset, reperfusion at 3 hours 15 minutes (after treatment)
  infarction volume relative to rats reperfused at two hours: neuroprotective when given up to three hours after MCAO, but only if reperfusion occurs after treatment; also recorded: significantly smaller infarctions volumes; also recorded: significantly reduced infarction volumes
3T3-L1 cells
  effect on PPARγ-corepressor complex: dissociation of the PPARγ-corepressor complex and transcriptional activation
myeloperoxidase-IR cells; reperfused at 2 h and treated at 3 h, relative to treated at 3 h and reperfused at 3.25 h
  myeloperoxidase-IR cells within the ischemic hemisphere: significantly increased numbers of myeloperoxidase-IR cells
myeloperoxidase-IR cells; rosiglitazone 0.1 mg/kg or pioglitazone 1 mg/kg at 3 h, reperfusion delayed to 3.25 h, relative to reperfusion at 2 h
  number of myeloperoxidase-IR cells per high powered field: significantly reduced
LPL mRNA
  increase in LPL mRNA levels within the ischemic hemisphere: 307%
ICAM mRNA
  ICAM mRNA compared with vehicle treated rats: significant reduction in ICAM mRNA
